Where two headings read alike, the source gives them in different places.
Experiments:
HCC1806 = assay: Cell viability assay (CellTiter-Glo); type: cell-based, Human; conditions: HCC1806, 7 days, CellTiter-Glo, read-out: IC50 (nM) in cell viability assay
PARG = PARG (Homo sapiens, UniProt Q86W56); assay: Biochemical assay (PARG, TFMU-ADPr substrate)
Sequence of PARG (Q86W56 whole entry): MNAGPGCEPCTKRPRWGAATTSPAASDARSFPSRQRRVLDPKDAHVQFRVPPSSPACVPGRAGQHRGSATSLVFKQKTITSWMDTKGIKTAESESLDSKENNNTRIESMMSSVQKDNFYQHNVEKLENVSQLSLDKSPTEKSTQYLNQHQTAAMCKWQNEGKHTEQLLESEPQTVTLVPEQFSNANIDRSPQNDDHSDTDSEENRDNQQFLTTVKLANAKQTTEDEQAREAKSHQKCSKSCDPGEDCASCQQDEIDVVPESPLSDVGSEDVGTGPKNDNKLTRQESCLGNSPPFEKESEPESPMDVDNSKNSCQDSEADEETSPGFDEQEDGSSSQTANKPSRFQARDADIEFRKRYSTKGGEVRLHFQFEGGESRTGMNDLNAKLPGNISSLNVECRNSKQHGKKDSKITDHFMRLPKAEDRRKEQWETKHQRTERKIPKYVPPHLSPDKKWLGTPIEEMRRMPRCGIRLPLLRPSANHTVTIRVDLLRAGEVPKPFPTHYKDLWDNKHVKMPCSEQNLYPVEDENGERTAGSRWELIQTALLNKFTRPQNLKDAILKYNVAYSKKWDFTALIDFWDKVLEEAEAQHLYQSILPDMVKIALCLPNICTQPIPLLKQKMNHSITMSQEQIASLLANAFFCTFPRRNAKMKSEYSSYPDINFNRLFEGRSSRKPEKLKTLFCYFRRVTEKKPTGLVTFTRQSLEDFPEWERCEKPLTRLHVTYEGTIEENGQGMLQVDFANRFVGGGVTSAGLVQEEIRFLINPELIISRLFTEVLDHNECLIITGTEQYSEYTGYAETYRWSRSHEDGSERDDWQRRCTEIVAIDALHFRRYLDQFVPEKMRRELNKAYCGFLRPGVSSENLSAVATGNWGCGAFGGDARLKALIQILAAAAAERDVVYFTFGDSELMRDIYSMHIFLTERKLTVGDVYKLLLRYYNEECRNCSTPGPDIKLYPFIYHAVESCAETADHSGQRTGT

SMILES | IC50 (HCC1806; Homo sapiens, HCC1806, 168 h) | IC50 (PARG; PARG, TFMU-ADPr substrate) | IC50 (HCC1806) | IC50 (PARG; 4 nM PARG, 66.2 uM TFMU-ADPr, 3 min at room temperature)
Cc1nc(-c2nnc(C(F)(F)F)s2)n2cc(S(=O)(=O)NC3(C#N)CC3)cc(N3CCN(C(=O)C4CCO4)CC3)c12 (stereo not drawn) [Example 172, N-(1-cyanocyclopropyl)-1-methyl-8-(4-(oxetane-2-carbonyl)piperazin-1-yl)-3-(5-(trifluoromethyl)-1,3,4-thiadiazol-2-yl)imidazo[1,5-a]pyridine-6-sulfonamide] | 308 nM | 10 nM |  | 
N#CC1(NS(=O)(=O)c2cc(N3CCN(c4ccccn4)CC3)c3cnc(-c4nnc(C(F)(F)F)s4)n3c2)CC1 [Example 244, N-(1-cyanocyclopropyl)-8-(4-(pyridin-2-yl)piperazin-1-yl)-3-(5-(trifluoromethyl)-1,3,4-thiadiazol-2-yl)imidazo[1,5-a]pyridine-6-sulfonamide] | 9000 nM | 75.9 nM |  | 
CC1(NS(=O)(=O)c2cc(N3CCN(C(=O)[C@H]4CCN4CCCF)CC3)c3cnc(-c4nnc(C(F)(F)F)s4)n3c2)CC1 [Example 319, (R)-8-(4-(1-(3-fluoropropyl)azetidine-2-carbonyl)piperazin-1-yl)-N-(1-methylcyclopropyl)-3-(5-(trifluoromethyl)-1,3,4-thiadiazol-2-yl)imidazo[1,5-a]pyridine-6-sulfonamide] | 147 nM | 5.62 nM |  | 
[2H]c1nc(-c2nnc(C(F)(F)F)s2)n2cc(S(=O)(=O)NC3(C#N)CC3)cc(N3CCN(C(=O)C4CC4)CC3)c12 [Example 157, N-(1-cyanocyclopropyl)-8-(4-(cyclopropanecarbonyl)piperazin-1-yl)-3-(5-(trifluoromethyl)-1,3,4-thiadiazol-2-yl)imidazo[1,5-a]pyridine-6-sulfonamide-1-d] | 1020 nM | 33.1 nM |  | 
CC1(NS(=O)(=O)c2cc(N3CCN(C(=O)C4NCCS4)CC3)c3cnc(-c4nnc(C(F)(F)F)s4)n3c2)CC1 (stereo not drawn) [Example 326, N-(1-methylcyclopropyl)-8-(4-(thiazolidine-2-carbonyl)piperazin-1-yl)-3-(5-(trifluoromethyl)-1,3,4-thiadiazol-2-yl)imidazo[1,5-a]pyridine-6-sulfonamide] | 257 nM | 4.82 nM |  | 
N#CC1(NS(=O)(=O)c2cc(N3CCN(C(=O)[C@@H]4CCN4)CC3)c3cnc(-c4nnc(C(F)(F)F)s4)n3c2)CC1 [Example 269, (S)-8-(4-(azetidine-2-carbonyl)piperazin-1-yl)-N-(1-cyanocyclopropyl)-3-(5-(trifluoromethyl)-1,3,4-thiadiazol-2-yl)imidazo[1,5-a]pyridine-6-sulfonamide] | 20000 nM | 79.4 nM |  | 
[2H]c1nc(-c2nnc(C(F)F)s2)n2cc(S(=O)(=O)NC3(C)COC3)cc(N3C[C@H](C)N[C@@H](C)C3)c12 [Example 160, 3-(5-(difluoromethyl)-1,3,4-thiadiazol-2-yl)-8-((3S,5S)-3,5-dimethylpiperazin-1-yl)-N-(3-methyloxetan-3-yl)imidazo[1,5-a]pyridine-6-sulfonamide-1-d] | 23.5 nM | 0.23 nM |  | 
CC1(NS(=O)(=O)c2cc(N3CCNC4(CC4)C3)c3cnc(-c4nnc(C(F)F)s4)n3c2)COC1 [Example 365, 3-(5-(difluoromethyl)-1,3,4-thiadiazol-2-yl)-N-(3-methyloxetan-3-yl)-8-(4,7-diazaspiro[2.5]octan-7-yl)imidazo[1,5-a]pyridine-6-sulfonamide] | 1070 nM | 8.58 nM |  | 
CC1(NS(=O)(=O)c2cc(N3CCO[C@H](CO)C3)c3cnc(-c4nnc(C(F)F)s4)n3c2)CC1 [Example 342, (S)-3-(5-(difluoromethyl)-1,3,4-thiadiazol-2-yl)-8-(2-(hydroxymethyl)morpholino)-N-(1-methylcyclopropyl)imidazo[1,5-a]pyridine-6-sulfonamide] | 297 nM | 3.04 nM |  | 
CC1(NS(=O)(=O)c2cc(N3CCN4C(=O)CCC4C3)c3cnc(-c4nnc(C(F)(F)F)s4)n3c2)COC1 (stereo not drawn) [Example 186, N-(3-methyloxetan-3-yl)-8-(6-oxohexahydropyrrolo[1,2-a]pyrazin-2(1H)-yl)-3-(5-(trifluoromethyl)-1,3,4-thiadiazol-2-yl)imidazo[1,5-a]pyridine-6-sulfonamide] | 485 nM | 5.62 nM |  | 
N#CC1(NS(=O)(=O)c2cc(N3CCN(C(=O)C4COC4)CC3)c3cnc(-c4nnc(C(F)(F)F)s4)n3c2)CC1 [Example 226, N-(1-cyanocyclopropyl)-8-(4-(oxetane-3-carbonyl)piperazin-1-yl)-3-(5-(trifluoromethyl)-1,3,4-thiadiazol-2-yl)imidazo[1,5-a]pyridine-6-sulfonamide] | 4850 nM | 26.3 nM |  | 
N#CC1(NS(=O)(=O)c2cc(N3CCN(C(=O)c4ccn[nH]4)CC3)c3cnc(-c4nnc(C(F)(F)F)s4)n3c2)CC1 [Example 235, 8-(4-(1H-pyrazole-5-carbonyl)piperazin-1-yl)-N-(1-cyanocyclopropyl)-3-(5-(trifluoromethyl)-1,3,4-thiadiazol-2-yl)imidazo[1,5-a]pyridine-6-sulfonamide] | 4940 nM | 4.37 nM |  | 
N#CC1(NS(=O)(=O)c2cc(N3CCN(C(=O)C4(F)CNC4)CC3)c3cnc(-c4nnc(C(F)(F)F)s4)n3c2)CC1 [Example 278, N-(1-cyanocyclopropyl)-8-(4-(3-fluoroazetidine-3-carbonyl)piperazin-1-yl)-3-(5-(trifluoromethyl)-1,3,4-thiadiazol-2-yl)imidazo[1,5-a]pyridine-6-sulfonamide] | 1980 nM | 40.7 nM |  | 
CC(C)OC(=O)N1CCN(c2cc(S(=O)(=O)NC3(C#N)CC3)cn3c(-c4nnc(C(F)(F)F)s4)ncc23)CC1 [Example 234, isopropyl 4-(6-(N-(1-cyanocyclopropyl)sulfamoyl)-3-(5-(trifluoromethyl)-1,3,4-thiadiazol-2-yl)imidazo[1,5-a]pyridin-8-yl)piperazine-1-carboxylate] | 4000 nM | 13.2 nM |  | 
C[C@H]1CN(c2cc(S(=O)(=O)NC3(C)COC3)cn3c(-c4nnc(C(F)F)s4)ncc23)C[C@H](CO)O1 [Example 396, 3-(5-(difluoromethyl)-1,3,4-thiadiazol-2-yl)-8-((2R,6S)-2-(hydroxymethyl)-6-methylmorpholino)-N-(3-methyloxetan-3-yl)imidazo[1,5-a]pyridine-6-sulfonamide] | 36.8 nM | 2.08 nM |  | 
CC(C)S(=O)(=O)N1CCN(c2cc(S(=O)(=O)NC3CC3)cn3c(-c4nnc(C(F)(F)F)s4)ncc23)CC1 [Example 215, N-cyclopropyl-8-(4-(isopropylsulfonyl)piperazin-1-yl)-3-(5-(trifluoromethyl)-1,3,4-thiadiazol-2-yl)imidazo[1,5-a]pyridine-6-sulfonamide] | 1500 nM | 69.2 nM |  | 
C[C@@H]1CN(c2cc(S(=O)(=O)NC3(C#N)CC3)cn3c(-c4nnc(C(F)(F)F)s4)ncc23)CCN1C(=O)C1CCO1 (stereo partly drawn) [Example 302, N-(1-cyanocyclopropyl)-8-((3R)-3-methyl-4-(oxetane-2-carbonyl)piperazin-1-yl)-3-(5-(trifluoromethyl)-1,3,4-thiadiazol-2-yl)imidazo[1,5-a]pyridine-6-sulfonamide] | 329 nM | 15.4 nM |  | 
COC1(C(=O)N2CCN(c3cc(S(=O)(=O)NC4(C#N)CC4)cn4c(-c5nnc(C(F)(F)F)s5)ncc34)CC2)CC1 [Example 228, N-(1-cyanocyclopropyl)-8-(4-(1-methoxycyclopropane-1-carbonyl)piperazin-1-yl)-3-(5-(trifluoromethyl)-1,3,4-thiadiazol-2-yl)imidazo[1,5-a]pyridine-6-sulfonamide] | 107 nM | 0.38 nM |  | 
C[C@@H]1CN(c2cc(S(=O)(=O)NC3(C#N)CC3)cn3c(-c4nnc(C(F)F)s4)ncc23)CCN1C(CO)C(F)(F)F (stereo partly drawn) [Example 144, N-(1-cyanocyclopropyl)-3-(5-(difluoromethyl)-1,3,4-thiadiazol-2-yl)-8-((3R)-3-methyl-4-(1,1,1-trifluoro-3-hydroxypropan-2-yl)piperazin-1-yl)imidazo[1,5-a]pyridine-6-sulfonamide] | 5000 to 30000 nM | 263 nM | 7020 nM | 100 to 500 nM
[2H]C([2H])([2H])OC1(C(=O)N2CCN(c3cc(S(=O)(=O)NC4(C)COC4)cn4c(-c5nnc(C(F)(F)F)s5)ncc34)CC2)CC1 [Example 183, 8-(4-(1-(methoxy-d3)cyclopropane-1-carbonyl)piperazin-1-yl)-N-(3-methyloxetan-3-yl)-3-(5-(trifluoromethyl)-1,3,4-thiadiazol-2-yl)imidazo[1,5-a]pyridine-6-sulfonamide] | 26.8 nM | 0.91 nM |  | 
CC(C)C(=O)N1CCN(c2cc(S(=O)(=O)NC3(C#N)CC3)cn3c(-c4nnc(C(F)(F)F)s4)ncc23)C(C)C1 (stereo not drawn) [Example 344, N-(1-cyanocyclopropyl)-8-(4-isobutyryl-2-methylpiperazin-1-yl)-3-(5-(trifluoromethyl)-1,3,4-thiadiazol-2-yl)imidazo[1,5-a]pyridine-6-sulfonamide] | 586 nM | 38.3 nM |  | 
C[C@H]1CN(c2cc(S(=O)(=O)NC3(C)COC3)cn3c(-c4nnc(C(F)(F)F)s4)nc(Cl)c23)C[C@H](C)N1 [Example 125, 1-chloro-8-((3S,5S)-3,5-dimethylpiperazin-1-yl)-N-(3-methyloxetan-3-yl)-3-(5-(trifluoromethyl)-1,3,4-thiadiazol-2-yl)imidazo[1,5-a]pyridine-6-sulfonamide] | 518 nM | 31.2 nM |  | 
N#CC1(NS(=O)(=O)c2cc(N3CCN(C(=O)C4CCO4)CC3)c3cnc(-c4nnc(C(F)(F)F)s4)n3c2)CC1 (stereo not drawn) [Example 300, N-(1-cyanocyclopropyl)-8-(4-(oxetane-2-carbonyl)piperazin-1-yl)-3-(5-(trifluoromethyl)-1,3,4-thiadiazol-2-yl)imidazo[1,5-a]pyridine-6-sulfonamide] |  | 31.6 nM | 403 nM | 
